According to PMC12713470, “Design and Synthesis of Novel Chalcone Derivatives Targeting Bladder and Liver Cancer: Cytotoxicity Evaluation and Preliminary Mechanistic Studies” (ACS Omega, 2025):
pIC50: −log10 of the molar value.

Legend:
[1] = test system: HeLa, HepG2, T24, and TOV-21G; assay: MTT cytotoxicity, all evaluated cancer cells (summary); format: cell-based; details: Homo sapiens, read-out: IC50 values against all evaluated cancer cells
Experimental: Cytotoxicity was determined using the MTT colorimetric assay, and half-maximal inhibitory concentrations (IC50, μM) were obtained for all cell lines (Table ). The selectivity index (SI) was calculated as the ratio of IC50 MRC-5/IC50 cancer cell line. Doxorubicin was employed as a positive control due to its broad-spectrum clinical use, either alone or in combination, against hepatocellular, ovarian, cervical, and bladder cancers. −
In vitro biological assays were performed by using five human cell lines for cytotoxicity evaluation. […]
Two hours prior to end point reading, 20 μL of MTT [3-(4,5-dimethylthiazol-2-yl)-2,5-diphenyltetrazolium bromide] solution (1.0 mg/mL in sterile phosphate-buffered saline, Sigma-Aldrich) was added to each well. […] After the appropriate incubation, absorbance was measured by using a VICTOR X3 microplate reader (PerkinElmer), and data were processed with WorkOut 2.5 software at a wavelength of 490 nm. […] The percentage of cytotoxicity was calculated using the equation % cytotoxicity = [(A – B)/A] × 100, where A is the optical density (OD4 9 0) of untreated control cells and B is the OD4 9 0 of treated cells.
Cytotoxicity was expressed as the 50% cytotoxic concentration (CC5 0), representing the concentration of sample required to reduce cell viability by 50% relative to that of the untreated control.

HepG2 cells [2] = assay: Clonogenic survival, HepG2; format: cell-based, human; details: 4.62 and 9.25 μM, 48 h treatment, 10 days colony formation
Experimental: (§1) The cells were cultured in DMEM (Sigma-Aldrich, St. Louis, USA) and supplemented with 10% fetal bovine serum (Cultilab Ltda., Campinas, Brazil) and antibiotics (amphotericin). They were incubated at 37 °C in a humidified atmosphere with 5% CO2. Control cell groups, which were not exposed to the compound, were included in the experiments and were conducted in triplicate. The chalcone was dissolved in dimethyl sulfoxide (DMSO) for the assays.
(§2) The cells were trypsinized and plated into 24-well plates at a density of 1.0 × 10^5 cells/mL. Afterward, they were treated with the chalcone at concentrations of 2.15, 4.62, 9.25, and 18.50 μM for 48 h. Following treatment, the cells were washed with Hanks’ solution and trypsinized again, and approximately 1000 cells were reseeded into 12-well plates. These cells were incubated for 10 days in a CO2 incubator to allow colony formation. After the incubation period, the culture medium was removed, and the cells were washed with Hanks’ solution. Fixation was performed using 4% formaldehyde for 20 min, followed by […] in 100% methanol for 20 min. The cells were then stained with a 0.5% crystal violet solution prepared in 25% methanol. […] Absorbance was measured at 570 nm using a spectrophotometer, and the results were expressed as the percentage of colonies formed relative to the untreated control group.

T24 cells [3] = assay: Clonogenic survival, T24; format: cell-based, human; details: 18.50 μM (maximum concentration tested), 48 h treatment, 10 days colony formation
Experimental: as §1, §2

T24 cells [4] = assay: Morphology assay, T24; format: cell-based, human; details: 2.15-18.50 μM, 48 h
Experimental: For the morphology assay, 2.0 × 10^5 cells were cultured in 12-well plates for 24 h to allow adherence. After this period, the cells were treated with the chalcone at concentrations of 2.15, 4.62, 9.25, and 18.50 μM for 48 h. After treatment, the cells were examined and photographed under an inverted microscope at 200× magnification.

HepG2 cells [5] = assay: Cell cycle progression (propidium iodide flow cytometry), HepG2; format: cell-based, human
Experimental: Cells were seeded in 12-well plates at a density of 1.0 × 10^5 cells per well and incubated for 24 h to allow adhesion. Following this initial incubation, the cells were treated with the chalcone at concentrations of 0.92, 2.15, 4.62, and 9.25 μM for an additional 48 h. After the treatment, the cells were washed, trypsinized, and collected along with the culture supernatant into Falcon tubes. The samples were then centrifuged at 1000 rpm for 10 min. After centrifugation, the supernatant was discarded, and the cell pellets were resuspended in 200 μL of propidium iodide staining solution before being transferred to cytometry tubes. These tubes were incubated on ice, in the dark, for 30 min. Flow cytometric analysis was performed on 20,000 events using a BD FACScalibur flow cytometer (BD Biosciences, Franklin Lakes, NJ, USA), and the data were analyzed using FlowJo software.

[6] = all concentrations tested (0.92–4.62 μM)

CCCc1cc(/C=C/C(=O)c2ccc(C)cc2)c(OC)c(OC)c1 [compound 3, (E)-3-(2,3-Dimethoxy-5-propylphenyl)-1-(p-tolyl)-prop-2-en-1-one]
pIC50 [1]: 5.23 to 5.52 | colony formation, HepG2 (HepG2 cells [2]): reduction in colony formation | colony formation, T24 (T24 cells [3]): significant effect was observed | morphology, T24 (T24 cells [4]): reduction in cell density was observed | fraction of cells in sub-G1, HepG2 (HepG2 cells [5]; 0.92–4.62 μM): remained stable | G2/M phase, HepG2 (HepG2 cells [5]; [6]): corresponding reduction | population of cells in the G0/G1 phase, HepG2 (HepG2 cells [5]; [6]): significant increase
